The text below walks through data of PubChem BioAssay (NCI).

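Test compounds were applied to cells in 96-well plates for 48 hours at 5 doses. Definition used: TGI = concentration required for complete inhibition of growth.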

Among the test systems are COLO 205 colon; SN12C renal; U251 CNS; OVCAR-4 ovarian; CCRF-CEM leukemia; UO-31 renal; KM12 colon; HOP-18 NSCLC; DLD-1 colon; LOX IMVI melanoma.
What all share (experiment): DTP human tumour cell line panel, 48 h

For the molecule `COc1ccc(N2C(=O)C3c4[nH]c5ccccc5c4C4CCCCCCC4C3C2=O)cc1` (stereo not given), the TGI (usually the concentration giving total growth inhibition) in the experiment on COLO 205 colon was over 48.6 µM; in the experiment with SN12C renal, 14.9 µM; in the experiment on U251 CNS, 16.5 µM; in the experiment with OVCAR-4 ovarian, 33.2 µM; in the experiment with CCRF-CEM leukemia, 21.5 µM; with UO-31 renal, 44.1 µM. The TGI in the experiment with KM12 colon is over 100 µM; with HOP-18 NSCLC, 3.2 µM; in the experiment with DLD-1 colon it was over 43.4 µM; in the experiment with LOX IMVI melanoma, 20.8 µM.
For `CN1C(=O)C2C=CC1C1CCC2N(C)C1=O` (stereo not given), the TGI in the experiment on COLO 205 colon, in the experiment with SN12C renal, in the experiment on U251 CNS, with OVCAR-4 ovarian, with CCRF-CEM leukemia and in the experiment with UO-31 renal was over 100 µM in each case. For the same molecule, the TGI with KM12 colon, in the experiment with HOP-18 NSCLC, in the experiment on DLD-1 colon and in the experiment with LOX IMVI melanoma was over 100 µM in each case.
`CCOC(=O)C1=C(Nc2ccc(Cl)c(Cl)c2)OC/C1=N\NC(=O)Cc1ccccc1`: the TGI with COLO 205 colon, with SN12C renal, in the experiment with U251 CNS, in the experiment on OVCAR-4 ovarian, with CCRF-CEM leukemia and in the experiment with UO-31 renal was over 100 µM in each case. For the same molecule, the TGI with KM12 colon, in the experiment on HOP-18 NSCLC, in the experiment with DLD-1 colon and with LOX IMVI melanoma was over 100 µM in each case.
